Results published in patent US4101556A, “Total synthesis of 2,5-dideoxystreptamines” (Bristol-Myers Company, priority 1977, dated 1978).
In brackets after ≈: the same amount, converted by molar mass.

Columns and labels:
[1] = background statement on positional isomers; cited from earlier work
S. pneum. 9585 = experiment: Minimum Inhibitory Concentration against S. pneum. 9585; assay type: cell-based; conditions: Mueller-Hinton Broth, 10^-4 organism dilution, read-out: M.I.C. (Minimum Inhibitory Concentration)
Source text: (§1) Minimum Inhibitory Concentration Of
(§2) 5-deoxykanamycin A Against Various
(§3) Microorganisms (mcg./ml.)
(§4) ^a = 45% Antibiotic Assay Broth, 50% Mueller-Hinton Broth and 5%
(§5) serum. All others are Mueller-Hinton Broth.
(§6) ^b = 10^-3 Organism dilution. All others are 10^-4 organism

S. pyogenes 9604 = experiment: Minimum Inhibitory Concentration against S. pyogenes 9604; assay type: cell-based; conditions: Streptococcus pyogenes, 45% Antibiotic Assay Broth, 50% Mueller-Hinton Broth and 5% serum, 10^-3 organism dilution, read-out: M.I.C. (Minimum Inhibitory Concentration)
Source text: as §1, §2, §3, §4, §5, §6

S. aureus 9537 = experiment: Minimum Inhibitory Concentration against S. aureus 9537; assay type: cell-based; conditions: Staphylococcus aureus, Mueller-Hinton Broth, 10^-4 organism dilution, read-out: M.I.C. (Minimum Inhibitory Concentration)
Source text: as §1, §2, §3, §4, §5, §6

S. aureus 9606 = experiment: Minimum Inhibitory Concentration against S. aureus 9606; assay type: cell-based; conditions: Staphylococcus aureus, Mueller-Hinton Broth, 10^-4 organism dilution, read-out: M.I.C. (Minimum Inhibitory Concentration)
Source text: as §1, §2, §3, §4, §5, §6

S. aureus 20240 = experiment: Minimum Inhibitory Concentration against S. aureus 20240; assay type: cell-based; conditions: Staphylococcus aureus, Mueller-Hinton Broth, 10^-4 organism dilution, read-out: M.I.C. (Minimum Inhibitory Concentration)
Source text: as §1, §2, §3, §4, §5, §6

E. coli 9632 = experiment: Minimum Inhibitory Concentration against E. coli 9632; assay type: cell-based; conditions: Escherichia coli, Mueller-Hinton Broth, 10^-3 organism dilution, read-out: M.I.C. (Minimum Inhibitory Concentration)
Source text: as §1, §2, §3, §4, §5, §6

E. coli 21218 = experiment: Minimum Inhibitory Concentration against E. coli 21218; assay type: cell-based; conditions: Escherichia coli, Mueller-Hinton Broth, 10^-3 organism dilution, read-out: M.I.C. (Minimum Inhibitory Concentration)
Source text: as §1, §2, §3, §4, §5, §6

E. coli 20895 = experiment: Minimum Inhibitory Concentration against E. coli 20895; assay type: cell-based; conditions: Escherichia coli, Mueller-Hinton Broth, 10^-3 organism dilution, read-out: M.I.C. (Minimum Inhibitory Concentration)
Source text: as §1, §2, §3, §4, §5, §6

E. coli 20732 = experiment: Minimum Inhibitory Concentration against E. coli 20732; assay type: cell-based; conditions: Escherichia coli, Mueller-Hinton Broth, 10^-3 organism dilution, read-out: M.I.C. (Minimum Inhibitory Concentration)
Source text: as §1, §2, §3, §4, §5, §6

E. coli 20665 = experiment: Minimum Inhibitory Concentration against E. coli 20665; assay type: cell-based; conditions: Escherichia coli, Mueller-Hinton Broth, 10^-3 organism dilution, read-out: M.I.C. (Minimum Inhibitory Concentration)
Source text: as §1, §2, §3, §4, §5, §6

E. coli 20683 = experiment: Minimum Inhibitory Concentration against E. coli 20683; assay type: cell-based; conditions: Escherichia coli, Mueller-Hinton Broth, 10^-3 organism dilution, read-out: M.I.C. (Minimum Inhibitory Concentration)
Source text: as §1, §2, §3, §4, §5, §6

E. cloacae 9656 = experiment: Minimum Inhibitory Concentration against E. cloacae 9656; assay type: cell-based; conditions: Enterobacter cloacae, Mueller-Hinton Broth, 10^-4 organism dilution, read-out: M.I.C. (Minimum Inhibitory Concentration)
Source text: as §1, §2, §3, §4, §5, §6

E. cloacae 20364 = experiment: Minimum Inhibitory Concentration against E. cloacae 20364; assay type: cell-based; conditions: Enterobacter cloacae, Mueller-Hinton Broth, 10^-3 organism dilution, read-out: M.I.C. (Minimum Inhibitory Concentration)
Source text: as §1, §2, §3, §4, §5, §6

E. cloacae 21006 = experiment: Minimum Inhibitory Concentration against E. cloacae 21006; assay type: cell-based; conditions: Enterobacter cloacae, Mueller-Hinton Broth, 10^-3 organism dilution, read-out: M.I.C. (Minimum Inhibitory Concentration)
Source text: as §1, §2, §3, §4, §5, §6

K. pneum. 9977 = experiment: Minimum Inhibitory Concentration against K. pneum. 9977; assay type: cell-based; conditions: Mueller-Hinton Broth, 10^-4 organism dilution, read-out: M.I.C. (Minimum Inhibitory Concentration)
Source text: as §1, §2, §3, §4, §5, §6

P. mirab. 9900 = experiment: Minimum Inhibitory Concentration against P. mirab. 9900; assay type: cell-based; conditions: Mueller-Hinton Broth, 10^-4 organism dilution, read-out: M.I.C. (Minimum Inhibitory Concentration)
Source text: as §1, §2, §3, §4, §5, §6

P. rettgeri 9637 = experiment: Minimum Inhibitory Concentration against P. rettgeri 9637; assay type: cell-based; conditions: Providencia rettgeri, Mueller-Hinton Broth, 10^-4 organism dilution, read-out: M.I.C. (Minimum Inhibitory Concentration)
Source text: as §1, §2, §3, §4, §5, §6

P. rettgeri 21207 = experiment: Minimum Inhibitory Concentration against P. rettgeri 21207; assay type: cell-based; conditions: Providencia rettgeri, Mueller-Hinton Broth, 10^-3 organism dilution, read-out: M.I.C. (Minimum Inhibitory Concentration)
Source text: as §1, §2, §3, §4, §5, §6

P. stuartii 21210 = experiment: Minimum Inhibitory Concentration against P. stuartii 21210; assay type: cell-based; conditions: Providencia stuartii, Mueller-Hinton Broth, 10^-4 organism dilution, read-out: M.I.C. (Minimum Inhibitory Concentration)
Source text: as §1, §2, §3, §4, §5, §6

P. stuartii 20894 = experiment: Minimum Inhibitory Concentration against P. stuartii 20894; assay type: cell-based; conditions: Providencia stuartii, Mueller-Hinton Broth, 10^-3 organism dilution, read-out: M.I.C. (Minimum Inhibitory Concentration)
Source text: as §1, §2, §3, §4, §5, §6

S. marc. 20019 = experiment: Minimum Inhibitory Concentration against S. marc. 20019; assay type: cell-based; conditions: Mueller-Hinton Broth, 10^-4 organism dilution, read-out: M.I.C. (Minimum Inhibitory Concentration)
Source text: as §1, §2, §3, §4, §5, §6

S. marc. 20460 = experiment: Minimum Inhibitory Concentration against S. marc. 20460; assay type: cell-based; conditions: Mueller-Hinton Broth, 10^-4 organism dilution, read-out: M.I.C. (Minimum Inhibitory Concentration)
Source text: as §1, §2, §3, §4, §5, §6

P. aerug. 9843A = experiment: Minimum Inhibitory Concentration against P. aerug. 9843A; assay type: cell-based; conditions: Mueller-Hinton Broth, 10^-4 organism dilution, read-out: M.I.C. (Minimum Inhibitory Concentration)
Source text: as §1, §2, §3, §4, §5, §6

P. aerug. 20653 = experiment: Minimum Inhibitory Concentration against P. aerug. 20653; assay type: cell-based; conditions: Mueller-Hinton Broth, 10^-4 organism dilution, read-out: M.I.C. (Minimum Inhibitory Concentration)
Source text: as §1, §2, §3, §4, §5, §6

P. aerug. 20741 = experiment: Minimum Inhibitory Concentration against P. aerug. 20741; assay type: cell-based; conditions: Mueller-Hinton Broth, 10^-4 organism dilution, read-out: M.I.C. (Minimum Inhibitory Concentration)
Source text: as §1, §2, §3, §4, §5, §6

P. aerug. 20717 = experiment: Minimum Inhibitory Concentration against P. aerug. 20717; assay type: cell-based; conditions: Mueller-Hinton Broth, 10^-4 organism dilution, read-out: M.I.C. (Minimum Inhibitory Concentration)
Source text: as §1, §2, §3, §4, §5, §6

P. aerug. 20601 = experiment: Minimum Inhibitory Concentration against P. aerug. 20601; assay type: cell-based; conditions: Mueller-Hinton Broth, 10^-4 organism dilution, read-out: M.I.C. (Minimum Inhibitory Concentration)
Source text: as §1, §2, §3, §4, §5, §6

P. aerug. 21509 = experiment: Minimum Inhibitory Concentration against P. aerug. 21509; assay type: cell-based; conditions: Mueller-Hinton Broth, 10^-4 organism dilution, read-out: M.I.C. (Minimum Inhibitory Concentration)
Source text: as §1, §2, §3, §4, §5, §6

## NC[C@H]1O[C@H](O[C@H]2[C@H](O)[C@@H](O)[C@H](N)C[C@@H]2N)[C@H](N)[C@@H](O)[C@@H]1O [neamine, 4-0-(2,6-dideoxy-2,6-diamino-α-D-glycopynanosyl) 2-deoxystreptamine]
[1]
  antibiotic activity: biologically active

## NC[C@H]1O[C@H](O[C@H]2C[C@@H](O[C@H]3O[C@H](CO)[C@@H](O)[C@H](N)[C@H]3O)[C@H](N)C[C@@H]2N)[C@H](O)[C@@H](O)[C@@H]1O [5-deoxykanamycin A, 5-Deoxykanamycin A]
S. pneum. 9585
  MIC: 125 µg/mL (≈ 267 µM)
S. pyogenes 9604
  MIC: 125 µg/mL (≈ 267 µM)
S. aureus 9537
  MIC: 2 µg/mL (≈ 4.27 µM)
S. aureus 9606
  MIC: 4 µg/mL (≈ 8.54 µM)
S. aureus 20240
  MIC: > 125 µg/mL
E. coli 9632
  MIC: 8 µg/mL (≈ 17.1 µM)
E. coli 21218
  MIC: > 125 µg/mL
E. coli 20895
  MIC: 8 µg/mL (≈ 17.1 µM)
E. coli 20732
  MIC: 125 µg/mL (≈ 267 µM)
E. coli 20665
  MIC: > 125 µg/mL
E. coli 20683
  MIC: > 125 µg/mL
E. cloacae 9656
  MIC: 8 µg/mL (≈ 17.1 µM)
E. cloacae 20364
  MIC: > 125 µg/mL
E. cloacae 21006
  MIC: > 125 µg/mL
K. pneum. 9977
  MIC: 1 µg/mL (≈ 2.13 µM)
P. mirab. 9900
  MIC: 32 µg/mL (≈ 68.3 µM)
P. rettgeri 9637
  MIC: 1 µg/mL (≈ 2.13 µM)
P. rettgeri 21207
  MIC: 16 µg/mL (≈ 34.2 µM)
P. stuartii 21210
  MIC: 4 µg/mL (≈ 8.54 µM)
P. stuartii 20894
  MIC: 32 µg/mL (≈ 68.3 µM)
S. marc. 20019
  MIC: 32 µg/mL (≈ 68.3 µM)
S. marc. 20460
  MIC: > 125 µg/mL
P. aerug. 9843A
  MIC: > 125 µg/mL
P. aerug. 20653
  MIC: > 125 µg/mL
P. aerug. 20741
  MIC: > 125 µg/mL
P. aerug. 20717
  MIC: > 125 µg/mL
P. aerug. 20601
  MIC: > 125 µg/mL
P. aerug. 21509
  MIC: > 125 µg/mL
